Data on 57 compounds can be found in patent US20150344457A1, “METHODS OF INHIBITING PRMT5” (EPIZYME, INC., priority 2012, published 2015).

In general, IC50 refers to the concentration needed to halve the response being measured.

The first test deals with T1, PRMT5/MEP50 (Homo sapiens, UniProt O14744).
T1 construct: Expressed full-length human Flag-PRMT5/6His-MeP50 protein complex was purified; made in house; host or cells: Spodoptera frugiperda (SF9) insect cells, baculovirus (pDEST8)
T1 sequence (O14744 with tags, fused parts or gaps): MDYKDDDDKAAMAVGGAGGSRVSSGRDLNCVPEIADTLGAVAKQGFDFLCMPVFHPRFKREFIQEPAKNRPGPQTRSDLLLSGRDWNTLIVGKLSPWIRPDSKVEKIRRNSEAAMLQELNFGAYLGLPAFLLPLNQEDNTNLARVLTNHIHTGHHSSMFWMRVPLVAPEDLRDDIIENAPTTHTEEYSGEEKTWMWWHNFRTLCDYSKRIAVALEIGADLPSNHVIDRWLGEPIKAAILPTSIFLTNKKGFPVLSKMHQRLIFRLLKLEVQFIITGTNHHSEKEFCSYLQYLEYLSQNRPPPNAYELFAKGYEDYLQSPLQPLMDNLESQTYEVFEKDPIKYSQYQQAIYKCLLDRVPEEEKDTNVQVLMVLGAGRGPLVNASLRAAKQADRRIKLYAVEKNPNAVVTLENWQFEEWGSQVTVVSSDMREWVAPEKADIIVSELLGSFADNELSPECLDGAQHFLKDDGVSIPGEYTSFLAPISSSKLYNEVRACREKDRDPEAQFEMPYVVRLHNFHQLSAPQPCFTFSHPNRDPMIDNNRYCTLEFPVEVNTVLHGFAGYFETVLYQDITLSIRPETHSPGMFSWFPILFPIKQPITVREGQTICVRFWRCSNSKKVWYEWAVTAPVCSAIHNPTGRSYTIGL
T1 sequence (Q9BQA1 with tags, fused parts or gaps partner limits assumed): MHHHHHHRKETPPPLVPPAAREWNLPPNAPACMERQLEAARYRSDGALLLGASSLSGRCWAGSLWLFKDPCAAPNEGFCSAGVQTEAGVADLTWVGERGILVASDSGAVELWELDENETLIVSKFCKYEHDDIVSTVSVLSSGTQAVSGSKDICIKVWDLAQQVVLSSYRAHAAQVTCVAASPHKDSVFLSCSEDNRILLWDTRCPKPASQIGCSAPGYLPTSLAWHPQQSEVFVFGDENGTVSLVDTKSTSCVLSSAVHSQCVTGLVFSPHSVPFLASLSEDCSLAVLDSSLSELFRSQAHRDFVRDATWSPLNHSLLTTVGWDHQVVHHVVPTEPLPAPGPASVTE
Briefly: PRMT5 Biochemical Assay (PRMT5/MEP50 enzyme assay on peptide substrate, 3H-SAM Flashplate). As to conditions: Biochemical IC50.
Regarding `O=C(COc1cccc2cccnc12)NCC(O)CN1CCc2ccccc2C1` (stereo not drawn) [Compound A6], the IC50 was less than 100 nM.
Same read-out and setting: the figure for `O=C(COc1cccc2cccnc12)NC[C@H](O)CN1CCc2ccccc2C1` [Compound A44] is 101 to 1000 nM.
Same read-out and setting: the figure for `O=C(COc1cccc2cccnc12)NC[C@@H](O)CN1CCc2ccccc2C1` [Compound A45] is less than 100 nM.

The test is the same for the next values; noted with them: Table A-2; PRMT5/MEP50 4 nM, 3H-SAM 75 nM, peptide 40 nM; read-out: Biochemical IC50.
For the compound `O=C(COc1cccc(F)c1)NCC(O)CN1CCc2ccccc2C1` (stereo not drawn) [Compound A7], the 50% inhibitory concentration (IC50) is 101 to 1000 nM.
Still for that read-out and setting: the figure for `N#Cc1cccc(OCC(=O)NCC(O)CN2CCc3ccccc3C2)c1` (stereo not drawn) [Compound A8] is 101 to 1000 nM.
Still for that read-out and setting: the figure for `Cc1ccc(OCC(=O)NCC(O)CN2CCc3ccccc3C2)cc1` (stereo not drawn) [Compound A9] is 101 to 1000 nM.
In the case of `N#Cc1ccc(OCC(=O)NCC(O)CN2CCc3ccccc3C2)cc1` (stereo not drawn) [Compound A11], the half-maximal inhibitory concentration (IC50) lay within 101 to 1000 nM.
On the same count and under the same terms, the figure for `COc1ccc(OCC(=O)NCC(O)CN2CCc3ccccc3C2)cc1` (stereo not drawn) [Compound A12] is 101 to 1000 nM; for `Cc1ccccc1OCC(=O)NCC(O)CN1CCc2ccccc2C1` (stereo not drawn) [Compound A15] it is 101 to 1000 nM; for `O=C(COc1ccccc1F)NCC(O)CN1CCc2ccccc2C1` (stereo not drawn) [Compound A16] it is 101 to 1000 nM.
Consider `N#Cc1ccccc1OCC(=O)NCC(O)CN1CCc2ccccc2C1` (stereo not drawn) [Compound A17], for which the IC50 lay in the range of 101 to 1000 nM.
Same read-out and setting: in the case of `O=C(CNc1ccccc1)NCC(O)CN1CCc2ccccc2C1` (stereo not drawn) [Compound A18] it was 1000 to 10000 nM.
Same read-out and setting: the figure for `CC(Oc1ccccc1)C(=O)NCC(O)CN1CCc2ccccc2C1` (stereo not drawn) [Compound A19] is less than 100 nM.
Still for that read-out and setting: in the case of `COc1cccc(OCC(=O)NCC(O)CN2CCc3ccccc3C2)c1` (stereo not drawn) [Compound A20] it was less than 100 nM; in that of `CC(=O)Nc1ccc(OCC(=O)NCC(O)CN2CCc3ccccc3C2)cc1` (stereo not drawn) [Compound A21], 101 to 1000 nM; in that of `COc1ccccc1OCC(=O)NCC(O)CN1CCc2ccccc2C1` (stereo not drawn) [Compound A22], less than 100 nM.
For the compound `Cn1ncc2ccc(OCC(=O)NCC(O)CN3CCc4ccccc4C3)cc21` (stereo not drawn) [Compound A23], the IC50 is less than 100 nM.
For the compound `Cc1cccc(OCC(=O)NCC(O)CN2CCc3ccccc3C2)c1` (stereo not drawn) [Compound A26], the IC50 was less than 100 nM.
Still for that read-out and setting: the figure for `CN(C)c1cccc(OCC(=O)NCC(O)CN2CCc3ccccc3C2)c1` (stereo not drawn) [Compound A27] is less than 100 nM.
The same measure, in the same setting: the figure for `CS(=O)(=O)Nc1cccc(OCC(=O)NCC(O)CN2CCc3ccccc3C2)c1` (stereo not drawn) [Compound A28] is less than 100 nM; for `NC(=O)c1ccccc1OCC(=O)NCC(O)CN1CCc2ccccc2C1` (stereo not drawn) [Compound A29] it is 101 to 1000 nM; for `CC(=O)Nc1cccc(OCC(=O)NCC(O)CN2CCc3ccccc3C2)c1` (stereo not drawn) [Compound A31] it is 1000 to 10000 nM.
On to `O=C(COc1ccccc1)NC[C@H](O)CN1CCc2ccccc2C1` [Compound A32], for which the IC50 lay in the range of 101 to 1000 nM.
The same measure, in the same setting: the figure for `NC(=O)c1cccc(OCC(=O)NCC(O)CN2CCc3ccccc3C2)c1` (stereo not drawn) [Compound A34] is 101 to 1000 nM; for `CN(C)c1ccc(OCC(=O)NCC(O)CN2CCc3ccccc3C2)cc1` (stereo not drawn) [Compound A35] it is 101 to 1000 nM.
The same measure, in the same setting: the figure for `CC(=O)Nc1ccccc1OCC(=O)NCC(O)CN1CCc2ccccc2C1` (stereo not drawn) [Compound A36] is 101 to 1000 nM.
On the same count and under the same terms, the figure for `CS(=O)(=O)c1ccccc1OCC(=O)NCC(O)CN1CCc2ccccc2C1` (stereo not drawn) [Compound A37] is less than 100 nM.
As to `CN(C)c1ccccc1OCC(=O)NCC(O)CN1CCc2ccccc2C1` (stereo not drawn) [Compound A38], the IC50 was less than 100 nM.
With `CC(Oc1cccc2cccnc12)C(=O)NCC(O)CN1CCc2ccccc2C1` (stereo not drawn) [Compound A39], the IC50 is less than 100 nM.
Regarding `O=C(COc1ccccc1C1CCCCC1)NCC(O)CN1CCc2ccccc2C1` (stereo not drawn) [Compound A40], the IC50 is less than 100 nM.
Still for that read-out and setting: in the case of `CS(=O)(=O)Nc1ccc(OCC(=O)NCC(O)CN2CCc3ccccc3C2)cc1` (stereo not drawn) [Compound A42] it was 101 to 1000 nM; in that of `CC(C)(Oc1cccc2cccnc12)C(=O)NCC(O)CN1CCc2ccccc2C1` (stereo not drawn) [Compound A43], less than 100 nM; in that of `Cn1cnc2cc(OCC(=O)NCC(O)CN3CCc4ccccc4C3)ccc21` (stereo not drawn) [Compound A46], 101 to 1000 nM.
Same read-out and setting: the figure for `CS(=O)(=O)c1cccc(OCC(=O)NCC(O)CN2CCc3ccccc3C2)c1` (stereo not drawn) [Compound A47] is less than 100 nM.
Same read-out and setting: in the case of `O=C(COc1cccc2ccc(N3CCOCC3)nc12)NCC(O)CN1CCc2ccccc2C1` (stereo not drawn) [Compound A48] it was less than 100 nM.
As for `O=C(COc1ccccc1N1CCOCC1)NCC(O)CN1CCc2ccccc2C1` (stereo not drawn) [Compound A49], the IC50 was less than 100 nM.
On the same count and under the same terms, in the case of `O=C(COc1ccccc1-c1cc[nH]n1)NCC(O)CN1CCc2ccccc2C1` (stereo not drawn) [Compound A50] it was less than 100 nM; in that of `CS(=O)(=O)Nc1ccccc1OCC(=O)NCC(O)CN1CCc2ccccc2C1` (stereo not drawn) [Compound A53], less than 100 nM; in that of `O=C(COc1cccc2c1CCCC2)NCC(O)CN1CCc2ccccc2C1` (stereo not drawn) [Compound A64], less than 100 nM.
Same read-out and setting: in the case of `NS(=O)(=O)c1ccccc1OCC(=O)NCC(O)CN1CCc2ccccc2C1` (stereo not drawn) [Compound A65] it was less than 100 nM.
Still for that read-out and setting: the figure for `O=C(COc1cccc2ccccc12)NCC(O)CN1CCc2ccccc2C1` (stereo not drawn) [Compound A66] is less than 100 nM; for `O=C(COc1ccccc1-c1cc[nH]n1)NC[C@@H](O)CN1CCc2ccccc2C1` [Compound A67] it is less than 100 nM.
With `O=C(COc1ccccc1-c1cc[nH]n1)NC[C@H](O)CN1CCc2ccccc2C1` [Compound A68], the IC50 is less than 100 nM.
Still for that read-out and setting: the figure for `O=C(COc1ccc2ncn(C3CCNCC3)c2c1)NCC(O)CN1CCc2ccccc2C1` (stereo not drawn) [Compound A70] is less than 100 nM; for `CN1CCC(n2cnc3ccc(OCC(=O)NCC(O)CN4CCc5ccccc5C4)cc32)CC1` (stereo not drawn) [Compound A71] it is less than 100 nM.
On the same count and under the same terms, in the case of `C[C@@H](Oc1cccc2cccnc12)C(=O)NC[C@H](O)CN1CCc2ccccc2C1` [Compound A73] it was less than 100 nM; in that of `C[C@@H](Oc1cccc2cccnc12)C(=O)NC[C@@H](O)CN1CCc2ccccc2C1` [Compound A74], less than 100 nM; in that of `CN1CCC(n2ncc3cc(OCC(=O)NCC(O)CN4CCc5ccccc5C4)ccc32)C1` (stereo not drawn) [Compound A96], less than 100 nM.
On the same count and under the same terms, in the case of `COc1ccc2cccc(OCC(=O)NC[C@H](O)CN3CCc4ccccc4C3)c2n1` [Compound A97] it was 101 to 1000 nM.
With `COc1ccc2cccc(OCC(=O)NC[C@@H](O)CN3CCc4ccccc4C3)c2n1` [Compound A98], the IC50 is less than 100 nM.
Regarding `CN1CCc2c(cccc2OCC(=O)NCC(O)CN2CCc3ccccc3C2)C1` (stereo not drawn) [Compound A99], the concentration for half-maximal inhibition (IC50) was less than 100 nM.
The same measure, in the same setting: in the case of `O=C(COc1cccc2c1OCCO2)NCC(O)CN1CCc2ccccc2C1` (stereo not drawn) [Compound A100] it was less than 100 nM.
In the case of `CC(=O)N1CCc2c(cccc2OCC(=O)NCC(O)CN2CCc3ccccc3C2)C1` (stereo not drawn) [Compound A101], the IC50 was less than 100 nM.
Same read-out and setting: in the case of `CS(=O)(=O)N1CCc2c(cccc2OCC(=O)NCC(O)CN2CCc3ccccc3C2)C1` (stereo not drawn) [Compound A102] it was less than 100 nM.
As to `O=C(COc1ccccc1C1CCNCC1)NCC(O)CN1CCc2ccccc2C1` (stereo not drawn) [Compound A103], the IC50 is less than 100 nM.
Still for that read-out and setting: in the case of `CN(C)c1ccc2cccc(OCC(=O)NC[C@H](O)CN3CCc4ccccc4C3)c2n1` [Compound A104] it was 101 to 1000 nM.
Still for that read-out and setting: in the case of `CN(C)c1ccc2cccc(OCC(=O)NC[C@@H](O)CN3CCc4ccccc4C3)c2n1` [Compound A105] it was less than 100 nM.
